# Measurements taken from patent US9353082B2, “Pharmaceutical compounds” (BIAL—PORTELA & CA, S.A., priority 2008, dated 2016).
# Legend:
# FAAH [1] = target: T1, FAAH (Rattus norvegicus, UniProt P97612); assay: In vitro FAAH activity in rat brain membranes, 3H-AEA substrate, % of control; type: biochemical, Wistar rats; conditions: low value = strong inhibitor; for In Vitro FAAH activity, 100 nM: 100 nM test compound; for In Vitro 100 nM (FAAH activity, % of control): rat brain membranes, compound at 100 nM
# T1 construct: Frozen brains (without cerebellum) from Wistar rats were used; from tissue; host or cells: Wistar rat brain (without cerebellum), washed membrane pellets
# T1 sequence (P97612 1-579): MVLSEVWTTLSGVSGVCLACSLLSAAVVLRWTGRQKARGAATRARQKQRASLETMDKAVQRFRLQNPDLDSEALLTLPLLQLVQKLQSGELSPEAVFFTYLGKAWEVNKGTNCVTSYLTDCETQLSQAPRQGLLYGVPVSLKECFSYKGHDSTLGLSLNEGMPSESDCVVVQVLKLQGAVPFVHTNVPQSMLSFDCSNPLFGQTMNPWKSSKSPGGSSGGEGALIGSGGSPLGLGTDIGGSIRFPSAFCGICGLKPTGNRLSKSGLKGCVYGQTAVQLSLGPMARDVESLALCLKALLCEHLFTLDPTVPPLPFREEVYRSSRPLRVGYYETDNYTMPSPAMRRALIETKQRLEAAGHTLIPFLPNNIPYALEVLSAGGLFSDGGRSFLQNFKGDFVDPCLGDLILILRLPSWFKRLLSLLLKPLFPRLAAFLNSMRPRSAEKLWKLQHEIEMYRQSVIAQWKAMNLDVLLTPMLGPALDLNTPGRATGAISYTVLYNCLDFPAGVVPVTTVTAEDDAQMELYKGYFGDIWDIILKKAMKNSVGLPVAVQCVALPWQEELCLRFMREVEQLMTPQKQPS
# Outline: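 FAAH activity measured as 3H-ethanolamine released from 2 μM [3H]AEA over 10 min by rat brain membrane preparation, after 15 min 37 °C preincubation with test compound at 10 or 0.1 μM. Charcoal-separated supernatant scintillation-counted; values expressed as % of control minus no-protein blank.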
# FAAH [2] = target: T2, FAAH (Mus musculus, UniProt O08914); assay: In vivo FAAH inhibition after oral dosing, remaining activity in brain homogenate (BRh, central nervous tissue); design: species or system NMRI mice; conditions: brain homogenate; for In Vivo BRh 3 mg·kg 8 h (remaining FAAH activity, % of control): 8 h after dosing; for In Vivo BRh 3 mg·kg 8 h (remaining FAAH activity, % of control) / In Vivo BRh 3 mg · kg · 8 h (remaining FAAH activity): low value = strong inhibitor; for In Vivo BRh 3 mg · kg · 8 h (remaining FAAH activity): 3 mg/kg oral
# T2 construct: A fragment of liver, left lung lobe and brain without cerebellum were removed; from tissue; host or cells: male NMRI mice; brain (without cerebellum) and liver homogenates
# T2 sequence (O08914 1-579): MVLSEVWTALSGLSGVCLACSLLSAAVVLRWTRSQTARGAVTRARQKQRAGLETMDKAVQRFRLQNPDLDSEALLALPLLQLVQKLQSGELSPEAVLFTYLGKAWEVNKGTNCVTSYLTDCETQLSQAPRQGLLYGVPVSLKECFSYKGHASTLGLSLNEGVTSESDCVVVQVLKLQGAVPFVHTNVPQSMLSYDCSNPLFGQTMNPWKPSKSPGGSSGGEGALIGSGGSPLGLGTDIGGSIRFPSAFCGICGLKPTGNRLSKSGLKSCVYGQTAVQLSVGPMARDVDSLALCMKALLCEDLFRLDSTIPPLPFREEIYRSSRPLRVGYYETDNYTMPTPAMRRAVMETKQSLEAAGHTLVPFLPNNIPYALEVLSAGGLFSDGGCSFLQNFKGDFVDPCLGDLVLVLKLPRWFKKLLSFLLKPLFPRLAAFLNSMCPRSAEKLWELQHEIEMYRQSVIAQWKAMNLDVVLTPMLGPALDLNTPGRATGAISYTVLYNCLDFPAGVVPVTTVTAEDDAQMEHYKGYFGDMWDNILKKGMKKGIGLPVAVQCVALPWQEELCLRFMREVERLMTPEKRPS
# Outline: (§1)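 Remaining FAAH activity is given as % of vehicle-treated controls after blank subtraction, measured by radiolabelled AEA hydrolysis (2 μM AEA, 5 nM 3H-AEA, 37 °C) in brain (10 min) or liver (7 min) homogenates. These came from fasted male NMRI mice dosed orally at 30 or 3 mg/kg.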
# FAAH [3] = target: T2, FAAH; assay: In vivo FAAH inhibition after oral dosing, remaining activity in liver homogenate (LVh, peripheral tissue); design: species or system NMRI mice; conditions: liver homogenate; for In Vivo LVh 3 mg·kg 8 h (remaining FAAH activity, % of control): 8 h after dosing; for In Vivo LVh 3 mg·kg 8 h (remaining FAAH activity, % of control) / In Vivo LVh 3 mg · kg · 8 h (remaining FAAH activity): low value = strong inhibitor; for In Vivo LVh 3 mg · kg · 8 h (remaining FAAH activity): 3 mg/kg oral
# Outline: as §1
Structure (SMILES),"In Vivo BRh 3 mg·kg 8 h (remaining FAAH activity, % of control) (FAAH [2])","In Vivo LVh 3 mg·kg 8 h (remaining FAAH activity, % of control) (FAAH [3])",other results
"CC1(C)COCN1C(=O)n1nnc2ccc(Br)cc21 [Compound 162, (6-bromo-1H-benzo[d][1,2,3]triazol-1-yl)(4,4-dimethyloxazolidin-3-yl)methanone]",–,–,"In Vitro FAAH activity, 100 nM (FAAH [1]): 0 % of control; In Vivo BRh 3 mg/kg 8 h, remaining FAAH activity (FAAH [2]): 0.9 % of control; In Vivo LVh 3 mg/kg 8 h, remaining FAAH activity (FAAH [3]): 3.1 % of control"
"CN(C(=O)n1cnc(-c2cccc(-c3cccc(C(N)=O)c3)c2)c1)C12CC3CC(CC(C3)C1)C2 [Compound 287, 4-(3′-carbamoylbiphenyl-3-yl)-N-methyl-N-tricyclo[3.3.1.13,7]dec-1-yl-1H-imidazole-1-carboxamide-propan-2-ol (1:1)]",105.8 % of control,85.7 % of control,"In Vitro 100 nM (FAAH activity, % of control) (FAAH [1]): 127.3 % of control"
"CN(C(=O)n1cnc(-c2ccc(O)cc2)c1)C1CCCCC1 [Compound 261, N-cyclohexyl-4-(4-hydroxyphenyl)-N-methyl-1H-imidazole-1-carboxamide]",–,–,"In Vitro FAAH activity, 100 nM (FAAH [1]): 54.1 % of control; In Vitro FAAH activity, 10 uM (FAAH [1]; 10 uM test compound): 0 % of control; In Vivo BRh 3 mg/kg 8 h, remaining FAAH activity (FAAH [2]): 1.2 % of control; In Vivo LVh 3 mg/kg 8 h, remaining FAAH activity (FAAH [3]): 1.2 % of control"
"O=C(N1CCN(c2ccccc2)CC1)n1cnc(-c2cccc(-c3ccccc3)c2)c1 [Compound 196, (4-(biphenyl-3-yl)-1H-imidazol-1-yl)(4-phenylpiperazin-1-yl)methanone]",–,–,"In Vitro FAAH activity, 100 nM (FAAH [1]): 2.5 % of control; In Vivo BRh 3 mg/kg 8 h, remaining FAAH activity (FAAH [2]): 88.1 % of control; In Vivo LVh 3 mg/kg 8 h, remaining FAAH activity (FAAH [3]): 78.3 % of control"
"CN(C(=O)n1cnc(-c2cccnc2)c1)C1CCCCC1 [Compound 335, N-cyclohexyl-N-methyl-4-(pyridin-3-yl)-1H-imidazole-1-carboxamide]",3.1 % of control,1 % of control,"In Vitro 100 nM (FAAH activity, % of control) (FAAH [1]): 75.4 % of control"
"CC1(C)COCN1C(=O)n1cnc(-c2cccs2)n1 [Compound 213, (4,4-dimethyloxazolidin-3-yl)(3-(thiophen-2-yl)-1H-1,2,4-triazol-1-yl)methanone]",–,–,"In Vitro FAAH activity, 100 nM (FAAH [1]): 105.6 % of control; In Vivo BRh 3 mg/kg 8 h, remaining FAAH activity (FAAH [2]): 53.7 % of control; In Vivo LVh 3 mg/kg 8 h, remaining FAAH activity (FAAH [3]): 6.9 % of control"
"CN(C(=O)n1cnc(-c2ccc(F)c(O)c2)c1)C1CCOCC1 [Compound no. 500, 4-(4-fluoro-3-hydroxyphenyl)-N-methyl-N-(tetrahydro-2H-pyran-4-yl)-1H-imidazole-1-carboxamide]",–,–,In Vivo BRh 3 mg · kg · 8 h (remaining FAAH activity) (FAAH [2]): 75.1 % of control; In Vivo LVh 3 mg · kg · 8 h (remaining FAAH activity) (FAAH [3]): 21.8 % of control
"CN(C)c1ccc(-c2cn(C(=O)N(C)C3CCCCC3)cn2)cc1N [Compound no. 447, 4-(3-amino-4-(dimethylamino)phenyl)-N-cyclohexyl-N-methyl-1H-imidazole-1-carboxamide]",11.8 % of control,6.5 % of control,–
"CC1(C)COCN1C(=O)n1nnc2cccnc21 [Compound no. 368, (3H-[1,2,3]triazolo[4,5-b]pyridin-3-yl)(4,4-dimethyloxazolidin-3-yl)methanone]",4.9 % of control,9.6 % of control,–
"COc1ccc2nnn(C(=O)N3COCC3(C)C)c2c1 [Compound 293, (4,4-dimethyloxazolidin-3-yl)(6-methoxy-1H-benzo[d][1,2,3]triazol-1-yl)methanone]",3.5 % of control,1.7 % of control,–
"CN(C(=O)n1cnc(-c2ccc(S(N)(=O)=O)cc2)c1)C1CCCCC1 [Compound no. 376, N-cyclohexyl-N-methyl-4-(4-sulfamoylphenyl)-1H-imidazole-1-carboxamide]",95.3 % of control,5.7 % of control,–
"Br.CN(C(=O)n1cnc(-c2ccc(O)c([N+](=O)[O-])c2)c1)C1CCN(Cc2ccccc2)CC1 [Compound no. 457, N-(1-benzylpiperidin-4-yl)-4-(4-hydroxy-3-nitrophenyl)-N-methyl-1H-imidazole-1-carboxamide hydrobromide]",28.1 % of control,10.6 % of control,–
"CN(C(=O)n1cnc(-c2ccc(S(=O)(=O)N3CCC(OCc4ccccc4)CC3)cc2)c1)C1CCCCC1 [Compound no. 415, 4-(4-(4-(benzyloxy)piperidin-1-ylsulfonyl)phenyl)-N-cyclohexyl-N-methyl-1H-imidazole-1-carboxamide]",109.1 % of control,95.4 % of control,–
"CN(C)c1ccc(-c2cn(C(=O)N(C)C3CCCCC3)cn2)cc1[N+](=O)[O-] [Compound no. 435, N-cyclohexyl-4-(4-(dimethylamino)-3-nitrophenyl)-N-methyl-1H-imidazole-1-carboxamide]",4.3 % of control,4.9 % of control,–
"Br.CN(C(=O)n1cnc(-c2ccc(O)c(O)c2)c1)C1CCN(Cc2ccccc2)CC1 [Compound no. 465, N-(1-benzylpiperidin-4-yl)-4-(3,4-dihydroxyphenyl)-N-methyl-1H-imidazole-1-carboxamide hydrobromide]",3.8 % of control,3.1 % of control,–
"COc1ccc(-c2cn(C(=O)N(C)C3CCOCC3)cn2)cc1N [Compound no. 468, 4-(3-amino-4-methoxyphenyl)-N-methyl-N-(tetrahydro-2H-pyran-4-yl)-1H-imidazole-1-carboxamide]",4.7 % of control,4.3 % of control,–
"CCCN1CCC(N(C)C(=O)n2cnc(-c3ccc(O)c(C(N)=O)c3)c2)CC1 [Compound 554, 4-(3-carbamoyl-4-hydroxyphenyl)-N-methyl-N-(1-propylpiperidin-4-yl)-1H-imidazole-1-carboxamide]",–,–,In Vivo BRh 3 mg · kg · 8 h (remaining FAAH activity) (FAAH [2]): 102.2 % of control; In Vivo LVh 3 mg · kg · 8 h (remaining FAAH activity) (FAAH [3]): 85.6 % of control
"CN(C(=O)n1cnc(-c2ccc(O)c(F)c2)c1)C1CCOCC1 [Compound no. 495, 4-(3-fluoro-4-hydroxyphenyl)-N-methyl-N-(tetrahydro-2H-pyran-4-yl)-1H-imidazole-1-carboxamide]",–,–,In Vivo BRh 3 mg · kg · 8 h (remaining FAAH activity) (FAAH [2]): 2.1 % of control; In Vivo LVh 3 mg · kg · 8 h (remaining FAAH activity) (FAAH [3]): 2.3 % of control
